Columns and labels:
Mus musculus [1] = assay: In vivo cytotoxicity against L1210 murine leukemia, expressed as median survival time of treated vs. untreated mice X 100 (CDF21 mice were given an injection of 105 cells i.p. and treated on day 1); assay type: functional
Mus musculus [2] = assay: In vivo inhibition of L1210 murine leukemia, expressed as optimal dose (CDF21 mice were given an injection of 105 cells i.p. and treated on day 1); assay type: functional
L1210 = assay: In vitro inhibition of L1210 murine leukemia (Drug sensitivity was determined by counting surviving cells after 48 hr of continuous exposure to at least 4 conc. of drug); assay type: functional, cell-based; settings: Mus musculus, L1210, 48 h

SMILES | T/C (Mus musculus [1]) | Optimal dose (Mus musculus [2]) | IC50 (L1210)
Cl.Cn1cc(NC(=O)c2ccc(N(CCCl)CCCl)cc2)cc1C(=O)Nc1cc(C(=O)Nc2cc(C(=O)NCCC(=N)N)n(C)n2)n(C)n1 | 259% | 25 mg/kg | 0.11 µg/mL
Cl.Cn1cc(NC(=O)c2cc(NC(=O)c3cc(NC(=O)c4ccc(N(CCCl)CCCl)cc4)nn3C)cn2C)cc1C(=O)NCCC(=N)N | 118% | 12.5 mg/kg | 1.39 µg/mL
Cl.Cn1cc(NC(=O)c2cc(NC(=O)c3csc(NC(=O)c4ccc(N(CCCl)CCCl)cc4)n3)cn2C)cc1C(=O)NCCC(=N)N | – | – | 32.5 µg/mL
Cl.Cn1cc(NC(=O)c2csc(NC(=O)c3ccc(N(CCCl)CCCl)cc3)n2)cc1C(=O)Nc1cc(C(=O)NCCC(=N)N)n(C)n1 | – | – | 7.2 µg/mL
Cl.Cn1cc(NC(=O)c2cc(NC(=O)c3cc(NC(=O)c4ccc(N(CCCl)CCCl)cc4)cn3C)cn2C)cc1C(=O)NCCC(=N)N [TALLIMUSTINE CHLORIDE] | 175% | 3.13 mg/kg | –
Cl.Cn1cc(NC(=O)c2ccc(N(CCCl)CCCl)cc2)cc1C(=O)Nc1cc(C(=O)Nc2cc(C(=O)NCCC(=N)N)n(C)n2)n(C)c1 | 213% | 6.25 mg/kg | 0.03 µg/mL
C=C(Br)C(=O)Nc1cc(C(=O)Nc2cc(C(=O)Nc3cc(C(=O)NCCC(=N)N)n(C)c3)n(C)c2)n(C)n1.Cl | 181% | 30 mg/kg | 0.15 µg/mL
C=C(Br)C(=O)Nc1nc(C(=O)Nc2cc(C(=O)Nc3cc(C(=O)NCCC(=N)N)n(C)c3)n(C)c2)cs1.Cl | – | – | 23.8 µg/mL
